Activity calls are given as the source filed them. The calls are words filed in the database; no cut-off is given here.
Legend:
Jurkat [1] = experiment: Induction of apoptosis in human Jurkat cells assessed as increase in Bax level at 0.5 uM for 24 hrs by Western blot analysis; format: functional, cell-based
Salmon testes DNA [2] = experiment: Binding affinity to double stranded salmon sperm DNA assessed as increase in DNA oxidation level by measuring net change in absorbance at 10 uM incubated for 1 hr by UV based spectroscopic method; format: nucleic-acid assay; conditions: Salmo salar
MDA-MB-231 = experiment: Anticancer activity against human MDA-MB-231 cells assessed as cell growth inhibition incubated for 72 hrs by MTT assay; format: functional
HCT-116 [3] = experiment: Induction of DNA damage in human HCT-116 cell lysate assessed as olive tail moment at 0.5 uM incubated for 2 hrs in dark by Comet assay; format: functional
Jurkat [4] = experiment: Induction of morphological changes in human Jurkat cells assessed as chromatin condensation incubated for 24 hrs by Hoechst 33258 and propidium iodide staining based fluorescence microscopy; format: functional, cell-based
[5] = Anticancer activity against human HCT116-p53-null cells assessed as cell growth inhibition incubated for 72 hrs by MTT assay; format: functional
SK-OV-3 = experiment: Anticancer activity against human SK-OV-3 cells assessed as cell growth inhibition incubated for 72 hrs by MTT assay; format: functional
Jurkat [6] = experiment: Induction of apoptosis in human Jurkat cells assessed as decrease in Endo-G protein level at 0.5 uM for 24 hrs by Western blot analysis; format: functional, cell-based
Jurkat [7] = experiment: Induction of apoptosis in human Jurkat cells assessed as decrease in Bcl-2 level at 0.5 uM for 24 hrs by Western blot analysis; format: functional, cell-based
Jurkat [8] = experiment: Induction of apoptosis in human Jurkat cells assessed as increase in cleaved capase-3 level at 0.5 uM for 24 hrs by Western blot analysis; format: functional, cell-based
Jurkat [9] = experiment: Induction of morphological changes in human Jurkat cells assessed as plasma membrane blebbing incubated for 24 hrs by Hoechst 33258 and propidium iodide staining based fluorescence microscopy; format: functional, cell-based
Jurkat [10] = experiment: Induction of morphological changes in human Jurkat cells assessed as change in cell shape incubated for 24 hrs by Hoechst 33258 and propidium iodide staining based fluorescence microscopy; format: functional
A549 = experiment: Anticancer activity against human A549 cells assessed as cell growth inhibition incubated for 72 hrs by MTT assay; format: functional
Salmon testes DNA [11] = experiment: Displacement of methyl green from salmon sperm DNA at 10 uM measured after 2 hrs by fluorescence plate reader method relative to control; format: nucleic-acid assay; conditions: Salmo salar
HCT-116 [12] = experiment: Induction of DNA damage in human HCT-116 cells assessed as tail DNA at 0.5 uM incubated for 2 hrs by alkaline Comet assay; format: functional
Jurkat [13] = experiment: Anticancer activity against human Jurkat cells assessed as cell growth inhibition incubated for 72 hrs by MTT assay; format: functional
[14] = Cytotoxicity against human HaCaT cells assessed as cell growth inhibition incubated for 72 hrs by MTT assay; format: toxicity, cell-based
Jurkat [15] = experiment: Induction of DNA damage in human Jurkat cells assessed as olive tail moment at 0.5 uM incubated for 24 hrs by alkaline Comet assay; format: functional
MCF7 = experiment: Anticancer activity against human MCF7 cells assessed as cell growth inhibition incubated for 72 hrs by MTT assay; format: functional
HCT-116 [16] = experiment: Anticancer activity against human HCT-116 cells assessed as cell growth inhibition incubated for 72 hrs by MTT assay; format: functional
HeLa = experiment: Anticancer activity against human HeLa cells assessed as cell growth inhibition incubated for 72 hrs by MTT assay; format: functional
HCT-116 [17] = experiment: Induction of DNA damage in human HCT-116 cells assessed as olive tail moment at 0.5 uM incubated for 2 hrs by alkaline Comet assay; format: functional
Jurkat [18] = experiment: Induction of morphological changes in human Jurkat cells assessed as chromatin topology incubated for 24 hrs by Hoechst 33258 and propidium iodide staining based fluorescence microscopy; format: functional, cell-based
Lymphocyte [19] = experiment: Induction of DNA damage in mitogen activated human peripheral blood lymphocytes assessed as olive tail moment at 0.5 uM incubated for 24 hrs by alkaline Comet assay; format: toxicity, cell-based
U-251 = experiment: Anticancer activity against human U-251 cells assessed as cell growth inhibition incubated for 72 hrs by MTT assay; format: functional
[20] = Cytotoxicity against mitogen activated human peripheral blood lymphocytes assessed as cell growth inhibition incubated for 24 hrs by MTT assay; format: toxicity, cell-based, Lymphocyte
Lymphocyte [21] = experiment: Induction of DNA damage in mitogen activated human peripheral blood lymphocytes assessed as tail DNA at 0.5 uM incubated for 24 hrs by alkaline Comet assay; format: toxicity, cell-based
KB 3-1 = experiment: Anticancer activity against human KB 3-1 cells assessed as cell growth inhibition incubated for 72 hrs by MTT assay; format: functional
HCT-116 [22] = experiment: Induction of DNA damage in human HCT-116 cell lysate assessed as tail DNA at 0.5 uM incubated for 2 hrs in dark by Comet assay; format: functional
[23] = Cytotoxicity against mitogen activated human peripheral blood lymphocytes assessed as cell growth inhibition incubated for 48 hrs by MTT assay; format: toxicity, cell-based, Lymphocyte
Jurkat [24] = experiment: Induction of morphological changes in human Jurkat cells assessed as chromatin fragmentation incubated for 24 hrs by Hoechst 33258 and propidium iodide staining based fluorescence microscopy; format: functional, cell-based
Jurkat [25] = experiment: Induction of DNA damage in human Jurkat cells assessed as tail DNA at 0.5 uM incubated for 24 hrs by alkaline Comet assay; format: functional

Activity (Salmon testes DNA [2]): Active
GI50 (MDA-MB-231): 5950 nM
GI50 (SK-OV-3): 9100 nM
GI50 (A549): 970 nM
Activity (Salmon testes DNA [11]): 68.7%
GI50 (Jurkat [13]): 430 nM
GI50 (MCF7): 750 nM
GI50 (HCT-116 [16]): 570 nM
GI50 (HeLa): 700 nM
GI50 (U-251): 890 nM
GI50 (KB 3-1): 980 nM
Structure (SMILES): COc1cccc2c1C(=O)c1c(O)c3c(c(O)c1C2=O)C[C@@](O)(C(=O)CO)C[C@@H]3O[C@H]1C[C@H](N)[C@H](O)[C@H](C)O1 [DOXORUBICIN]
Activity (Jurkat [1]): Active
Activity (HCT-116 [3]): 1.95%
Activity (Jurkat [4]): Active
GI50 [5]: 2800 nM
Activity (Jurkat [6]): Active
Activity (Jurkat [7]): Active
Activity (Jurkat [8]): Active
Activity (Jurkat [9]): Active
Activity (Jurkat [10]): Active
Activity (HCT-116 [12]): 18%
GI50 at 72 h [14]: 640 nM
Activity (Jurkat [15]): 12.23%
Activity (HCT-116 [17]): 1%
Activity (Jurkat [18]): Active
Activity (Lymphocyte [19]): 8.12%
GI50 at 24 h [20]: 2900 nM
Activity (Lymphocyte [21]): 25.9%
Activity (HCT-116 [22]): 12.6%
GI50 at 48 h [23]: 500 nM
Activity (Jurkat [24]): Active
Activity (Jurkat [25]): 40.9%

Source: ChEMBL document CHEMBL5113392, “Novel hybrid pyrrolidinedione-thiazolidinones as potential anticancer agents: Synthesis and biological evaluation” (Eur J Med Chem, 2022)
